{"source": "ChEMBL document CHEMBL1130772", "about": "“New nonsteroidal androgen receptor modulators based on 4-(trifluoromethyl)-2(1H)-pyrrolidino[3,2-g] quinolinone” (Bioorg Med Chem Lett, 1998)", "assay_type_in_all_cases": "functional, cell-based", "key": {"Estrogen receptor [1]": {"target": "T1, Estrogen receptor (Homo sapiens, UniProt Q92731+P03372)", "experiment": "(§1) Antagonistic activity against Estrogen receptor in co-transfected CV-1 cell"}, "Progesterone receptor": {"target": "T2, Progesterone receptor (Homo sapiens, UniProt P06401)", "T2 sequence (P06401 whole entry)": "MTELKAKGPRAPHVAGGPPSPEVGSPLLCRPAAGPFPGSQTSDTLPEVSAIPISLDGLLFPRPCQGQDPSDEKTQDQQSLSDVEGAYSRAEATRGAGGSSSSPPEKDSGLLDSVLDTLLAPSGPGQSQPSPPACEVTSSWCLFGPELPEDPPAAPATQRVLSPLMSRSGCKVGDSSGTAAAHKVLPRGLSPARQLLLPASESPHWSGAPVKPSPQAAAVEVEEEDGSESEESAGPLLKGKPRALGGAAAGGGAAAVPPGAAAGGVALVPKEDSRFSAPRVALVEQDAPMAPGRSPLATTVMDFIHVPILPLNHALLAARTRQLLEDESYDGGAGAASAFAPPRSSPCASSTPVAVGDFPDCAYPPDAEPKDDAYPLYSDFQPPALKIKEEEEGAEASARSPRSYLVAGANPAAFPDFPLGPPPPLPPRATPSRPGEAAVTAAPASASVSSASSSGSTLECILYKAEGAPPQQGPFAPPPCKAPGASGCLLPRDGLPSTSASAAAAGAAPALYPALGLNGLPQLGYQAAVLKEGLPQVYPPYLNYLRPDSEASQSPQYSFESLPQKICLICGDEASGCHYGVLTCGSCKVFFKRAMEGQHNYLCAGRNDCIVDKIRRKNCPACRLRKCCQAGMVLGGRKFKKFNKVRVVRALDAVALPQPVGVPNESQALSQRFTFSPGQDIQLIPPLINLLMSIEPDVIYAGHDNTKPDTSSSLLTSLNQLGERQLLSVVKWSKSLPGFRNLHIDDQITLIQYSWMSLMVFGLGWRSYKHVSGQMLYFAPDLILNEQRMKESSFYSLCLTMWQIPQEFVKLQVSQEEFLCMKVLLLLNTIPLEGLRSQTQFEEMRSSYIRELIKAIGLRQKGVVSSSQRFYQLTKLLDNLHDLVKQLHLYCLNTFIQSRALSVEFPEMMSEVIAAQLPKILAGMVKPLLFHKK", "experiment": "(§2) Antagonistic activity against hPR in co-transfected CV-1 cell"}, "[2]": {"target": "T3, Mineralocorticoid receptor (Homo sapiens, UniProt P08235)", "T3 sequence (P08235 whole entry)": "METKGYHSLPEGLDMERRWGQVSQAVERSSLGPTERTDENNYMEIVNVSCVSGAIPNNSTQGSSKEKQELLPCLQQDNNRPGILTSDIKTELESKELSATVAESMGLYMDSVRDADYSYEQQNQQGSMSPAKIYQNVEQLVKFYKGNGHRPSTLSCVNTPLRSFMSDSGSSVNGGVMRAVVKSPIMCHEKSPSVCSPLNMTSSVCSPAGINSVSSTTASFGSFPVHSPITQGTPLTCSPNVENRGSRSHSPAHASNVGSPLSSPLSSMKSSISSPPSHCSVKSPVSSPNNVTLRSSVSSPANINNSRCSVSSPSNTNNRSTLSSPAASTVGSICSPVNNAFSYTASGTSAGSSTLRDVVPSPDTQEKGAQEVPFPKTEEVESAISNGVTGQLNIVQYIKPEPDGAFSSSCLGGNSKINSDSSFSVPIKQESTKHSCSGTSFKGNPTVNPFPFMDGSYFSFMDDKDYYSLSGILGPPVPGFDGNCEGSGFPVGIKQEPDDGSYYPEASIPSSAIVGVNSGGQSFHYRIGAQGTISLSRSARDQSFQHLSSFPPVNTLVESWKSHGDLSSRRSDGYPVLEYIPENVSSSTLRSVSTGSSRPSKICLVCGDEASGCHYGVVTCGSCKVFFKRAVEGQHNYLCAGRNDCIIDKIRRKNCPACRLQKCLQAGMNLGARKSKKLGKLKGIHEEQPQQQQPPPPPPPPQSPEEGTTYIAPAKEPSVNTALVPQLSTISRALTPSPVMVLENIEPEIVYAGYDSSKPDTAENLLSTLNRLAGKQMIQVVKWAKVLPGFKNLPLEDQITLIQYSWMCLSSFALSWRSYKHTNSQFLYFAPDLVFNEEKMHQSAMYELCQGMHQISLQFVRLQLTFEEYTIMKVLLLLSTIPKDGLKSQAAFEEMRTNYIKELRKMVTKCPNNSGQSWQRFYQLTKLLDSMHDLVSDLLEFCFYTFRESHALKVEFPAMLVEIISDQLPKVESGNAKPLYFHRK", "experiment": "(§3) Antagonistic activity against hMR in co-transfected CV-1 cell"}, "[3]": {"target": "T4, Progesterone receptor (Homo sapiens) (UniProt P06401)", "T4 sequence (whole entry)": "T2 sequence (P06401 whole entry)", "experiment": "as §2"}, "Estrogen receptor [4]": {"target": "T1, Estrogen receptor", "experiment": "as §1", "remark": "listed apart in the source"}, "Glucocorticoid receptor": {"target": "T5, Glucocorticoid receptor (Homo sapiens, UniProt P04150)", "T5 sequence (P04150 whole entry)": "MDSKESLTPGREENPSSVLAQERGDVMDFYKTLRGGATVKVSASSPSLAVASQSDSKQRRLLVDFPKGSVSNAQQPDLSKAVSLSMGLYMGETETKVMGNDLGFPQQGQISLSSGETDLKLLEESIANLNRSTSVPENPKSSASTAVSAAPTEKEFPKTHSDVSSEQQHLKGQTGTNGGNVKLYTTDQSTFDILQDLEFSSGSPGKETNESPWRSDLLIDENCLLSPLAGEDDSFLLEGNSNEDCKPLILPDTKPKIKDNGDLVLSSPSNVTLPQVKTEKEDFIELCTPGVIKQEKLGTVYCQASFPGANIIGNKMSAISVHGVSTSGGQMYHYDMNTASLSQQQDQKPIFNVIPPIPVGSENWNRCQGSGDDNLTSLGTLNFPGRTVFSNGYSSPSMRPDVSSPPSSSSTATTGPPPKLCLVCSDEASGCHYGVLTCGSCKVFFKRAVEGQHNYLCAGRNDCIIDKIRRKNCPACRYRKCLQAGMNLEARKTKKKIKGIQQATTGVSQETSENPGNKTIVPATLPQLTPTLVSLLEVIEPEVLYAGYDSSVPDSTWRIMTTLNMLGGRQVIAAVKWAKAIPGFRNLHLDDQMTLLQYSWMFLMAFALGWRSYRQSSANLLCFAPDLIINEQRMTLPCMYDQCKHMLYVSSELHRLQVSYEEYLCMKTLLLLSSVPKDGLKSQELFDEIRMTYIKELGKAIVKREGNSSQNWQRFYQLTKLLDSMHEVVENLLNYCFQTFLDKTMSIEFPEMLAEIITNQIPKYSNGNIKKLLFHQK", "experiment": "Antagonistic activity against Glucocorticoid receptor in co-transfected CV-1 cell"}, "[5]": {"target": "T6, Mineralocorticoid receptor (Homo sapiens) (UniProt P08235)", "T6 sequence (whole entry)": "T3 sequence (P08235 whole entry)", "experiment": "as §3"}}, "data": [{"smiles": "CC1(C)CCC[C@]2(C)c3cc4c(C(F)(F)F)cc(O)nc4cc3N[C@H]12", "values": [{"measurement": "Efficacy", "setting": "Estrogen receptor [1]", "result": "< 20", "unit": "%"}, {"measurement": "IC50", "setting": "Progesterone receptor", "result": 0.43, "unit": "µM"}, {"measurement": "IC50", "setting": "[2]", "result": 0.57, "unit": "µM"}, {"measurement": "Efficacy", "setting": "[3]", "result": 96, "unit": "%"}, {"measurement": "IC50", "setting": "Estrogen receptor [4]", "result": "> 10", "unit": "µM"}, {"measurement": "IC50", "setting": "Glucocorticoid receptor", "result": 1.4, "unit": "µM"}, {"measurement": "Efficacy", "setting": "[5]", "result": 77, "unit": "%"}]}, {"smiles": "CN1c2cc3c(cc2[C@H]2CCCC[C@H]21)c(C(F)(F)F)cc(=O)n3C", "values": [{"measurement": "Efficacy", "setting": "Estrogen receptor [1]", "result": "< 20", "unit": "%"}, {"measurement": "IC50", "setting": "Progesterone receptor", "result": 1, "unit": "µM"}, {"measurement": "IC50", "setting": "[2]", "result": "> 10", "unit": "µM"}, {"measurement": "Efficacy", "setting": "[3]", "result": 98, "unit": "%"}, {"measurement": "IC50", "setting": "Estrogen receptor [4]", "result": "> 10", "unit": "µM"}, {"measurement": "IC50", "setting": "Glucocorticoid receptor", "result": "> 10", "unit": "µM"}, {"measurement": "Efficacy", "setting": "[5]", "result": "< 20", "unit": "%"}]}, {"smiles": "C[C@H]1CC[C@H]2Nc3cc4c(cc3[C@H]2C1)c(C(F)(F)F)cc(=O)n4C", "values": [{"measurement": "Efficacy", "setting": "Estrogen receptor [1]", "result": "< 20", "unit": "%"}, {"measurement": "IC50", "setting": "Progesterone receptor", "result": 0.38, "unit": "µM"}, {"measurement": "IC50", "setting": "[2]", "result": "> 10", "unit": "µM"}, {"measurement": "Efficacy", "setting": "[3]", "result": 97, "unit": "%"}, {"measurement": "IC50", "setting": "Estrogen receptor [4]", "result": "> 10", "unit": "µM"}, {"measurement": "IC50", "setting": "Glucocorticoid receptor", "result": "> 10", "unit": "µM"}, {"measurement": "Efficacy", "setting": "[5]", "result": "< 20", "unit": "%"}]}]}
